The supplement of paper PMC10307832

Assays:
Assay in all cases: relative viability (nuclei count vs DMSO), 5 days (fraction); higher = more cells survive
EHT 1864 = compound: C1COCCN1CC2=CC(=O)C(=CO2)OCCCCCSC3=C4C=CC(=CC4=NC=C3)C(F)(F)F [EHT 1864]
Procedure, shortened: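 Cells of lung cancer lines were placed in 1536-well plates and kept overnight at 37 °C. Pinning then delivered five library-drug doses (not always all listed), spaced by √10, onto plates anchored with vehicle, and the cells were left 5 days without changing medium. One step fixed, permeabilised and stained them with Hoechst, and MetaXpress counted nuclei in 4× images. Viability, as a median over plates, is treated-well nuclei divided by vehicle-well nuclei, with acceptance only at control CV below 25% and at least one doubling.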

EHT 1864 + Navitoclax = compound: C1COCCN1CC2=CC(=O)C(=CO2)OCCCCCSC3=C4C=CC(=CC4=NC=C3)C(F)(F)F [EHT 1864] + CC1(C)CCC(c2ccc(Cl)cc2)=C(CN2CCN(c3ccc(C(=O)NS(=O)(=O)c4ccc(N[C@H](CCN5CCOCC5)CSc5ccccc5)c(S(=O)(=O)C(F)(F)F)c4)cc3)CC2)C1 [Navitoclax] (partner 0.5 µM)
Procedure, shortened: (§1)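 A single step with final 0.05% Triton X-100, 1% formaldehyde and 1 ug/ml Hoechst fixed the cells and stained nuclei 5 days after treatment. Lung cancer cell lines in 1536-well plates had been treated by pin tool the day after seeding with one drug alone or a fixed anchor-drug dose plus five library-drug doses (not always all listed) in √10 steps, and nuclei were counted on 4× images. Relative viability is the ratio of nuclei in treated wells to nuclei in vehicle wells, taken as the median of duplicate plates.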

EHT 1864 + Tozasertib = compound: C1COCCN1CC2=CC(=O)C(=CO2)OCCCCCSC3=C4C=CC(=CC4=NC=C3)C(F)(F)F [EHT 1864] + Cc1cc(Nc2cc(N3CCN(C)CC3)nc(Sc3ccc(NC(=O)C4CC4)cc3)n2)n[nH]1 [Tozasertib] (partner 0.1 µM)
Procedure, shortened: as §1

EHT 1864 + Phenformin = compound: C1COCCN1CC2=CC(=O)C(=CO2)OCCCCCSC3=C4C=CC(=CC4=NC=C3)C(F)(F)F [EHT 1864] + N=C(N)NC(=N)NCCc1ccccc1 [Phenformin] (partner 250 µM)
Procedure, shortened: as §1

Cell Line | relative viability (EHT 1864; 0.04 µM) | relative viability (EHT 1864; 0.1265 µM) | relative viability (EHT 1864; 0.4 µM) | relative viability (EHT 1864; 1.265 µM) | relative viability (EHT 1864; 4 µM) | relative viability (EHT 1864 + Navitoclax; first compound 0.04 µM) | relative viability (EHT 1864 + Navitoclax; first compound 0.1265 µM) | relative viability (EHT 1864 + Navitoclax; first compound 0.4 µM) | relative viability (EHT 1864 + Navitoclax; first compound 1.265 µM) | relative viability (EHT 1864 + Navitoclax; first compound 4 µM) | relative viability (EHT 1864 + Tozasertib; first compound 0.04 µM) | relative viability (EHT 1864 + Tozasertib; first compound 0.1265 µM) | relative viability (EHT 1864 + Tozasertib; first compound 0.4 µM) | relative viability (EHT 1864 + Tozasertib; first compound 1.265 µM) | relative viability (EHT 1864 + Tozasertib; first compound 4 µM) | relative viability (EHT 1864 + Phenformin; first compound 0.04 µM) | relative viability (EHT 1864 + Phenformin; first compound 0.1265 µM) | relative viability (EHT 1864 + Phenformin; first compound 0.4 µM) | relative viability (EHT 1864 + Phenformin; first compound 1.265 µM) | relative viability (EHT 1864 + Phenformin; first compound 4 µM)
HCC-44 | 0.987 | 0.867 | 0.97 | 0.935 | 0.974 | 1.02 | 0.951 | 0.905 | 0.904 | 1.08 | 0.919 | 0.827 | 0.878 | 0.771 | 0.926 | 0.193 | 0.13 | 0.203 | 0.218 | 0.221
HCC-78 | 0.968 | 0.907 | 0.923 | 0.922 | 1.13 | 0.618 | 0.746 | 0.693 | 0.685 | 1.1 | 0.432 | 0.236 | 0.278 | 0.335 | 0.563 | 0.635 | 0.604 | 0.694 | 0.746 | 0.733
HCC-366 | 1.01 | 0.804 | 1.01 | 1.07 | 1.06 | 1.14 |  | 1.01 | 0.995 | 1.14 | 0.13 | 0.168 | 0.0914 | 0.0579 | 0.0542 | 0.616 | 0.538 | 0.593 | 0.511 | 0.585
HCC-827 | 1.03 | 0.821 | 1.07 | 0.99 | 1.02 | 1.1 | 0.844 | 0.96 | 1.02 | 0.944 | 0.415 | 0.348 | 0.408 | 0.449 | 0.4 | 0.407 | 0.347 | 0.396 | 0.432 | 0.329
HOP-62 | 1.05 |  | 1 | 1.04 | 1.07 | 0.915 |  | 1.02 | 0.977 | 1.22 | 0.391 |  | 0.376 | 0.333 | 0.374 | 0.665 |  | 0.615 | 0.654 | 0.718
IA-LM | 0.925 |  | 0.908 | 0.764 | 0.855 | 0.697 | 0.653 | 0.775 | 0.803 | 0.569 |  |  |  |  |  |  |  |  |  | 
LC-2-ad | 0.966 | 0.716 | 1.03 | 0.946 | 0.934 | 0.49 |  | 0.49 | 0.382 | 0.39 | 0.483 |  | 0.516 | 0.391 | 0.487 | 0.574 |  | 0.632 | 0.64 | 0.696
LCLC-97TM1 | 1.01 | 0.762 | 1.01 | 0.881 | 0.903 | 0.414 |  | 0.342 | 0.339 | 0.503 | 0.289 | 0.196 | 0.181 | 0.19 | 0.227 | 0.424 | 0.364 | 0.444 | 0.415 | 0.414
LCLC-103H | 0.987 | 0.903 | 1.01 | 1.12 | 1.02 |  |  |  |  |  | 0.455 | 0.305 | 0.543 | 0.441 | 0.475 | 0.356 | 0.271 | 0.357 | 0.33 | 0.391
LK-2 | 1.04 | 0.793 | 0.979 | 1.04 | 0.929 | 0.839 | 0.674 | 0.847 | 0.94 | 0.784 | 0.162 |  | 0.169 | 0.198 | 0.164 | 0.539 |  | 0.591 | 0.369 | 0.373
NCI-H358 | 0.888 | 0.834 | 1.06 | 0.939 | 0.933 |  |  |  |  |  | 0.113 | 0.128 | 0.104 | 0.102 | 0.0985 | 0.328 | 0.338 | 0.367 | 0.345 | 0.303
NCI-H522 | 0.845 | 0.939 | 0.996 | 1 | 0.855 |  |  |  |  |  | 0.583 | 0.471 | 0.561 | 0.503 | 0.541 | 0.538 | 0.613 | 0.605 | 0.571 | 0.4
NCI-H650 | 0.894 | 0.846 | 0.968 | 1.01 | 1.03 |  |  |  |  |  | 0.671 | 0.667 | 0.708 | 0.642 | 0.722 | 0.403 | 0.455 | 0.48 | 0.447 | 0.459
NCI-H661 | 1.01 | 1.01 | 0.975 | 0.941 | 0.926 |  |  |  |  |  | 0.385 | 0.335 | 0.355 | 0.33 | 0.379 | 0.339 | 0.273 | 0.301 | 0.302 | 0.269
NCI-H1299 | 1.01 | 0.976 | 0.964 | 0.979 | 0.956 | 1.02 | 1.02 | 1.05 | 0.986 | 0.984 |  |  |  |  |  |  |  |  |  | 
NCI-H1563 | 0.992 | 0.887 | 0.959 | 0.896 | 0.882 |  |  |  |  |  |  |  |  |  |  | 0.672 | 0.64 | 0.675 | 0.677 | 0.685
NCI-H1648 | 1.2 | 0.735 | 0.954 | 1.02 | 1.43 |  |  |  |  |  | 0.486 | 0.376 | 0.396 | 0.411 | 0.441 |  |  |  |  | 
NCI-H1703 | 0.929 | 0.707 | 0.939 | 0.776 | 0.657 | 1.13 | 0.968 | 0.956 | 0.849 | 0.749 |  |  |  |  |  |  |  |  |  | 
NCI-H1792 | 0.906 |  | 0.723 | 0.988 | 1 | 0.68 | 0.54 | 0.648 | 0.616 | 0.718 |  |  |  |  |  | 0.256 |  |  | 0.304 | 0.368
NCI-H2342 | 0.778 | 0.856 | 0.803 | 0.929 | 1.03 |  |  |  |  |  | 0.541 | 0.394 | 0.452 | 0.491 | 0.533 | 0.546 | 0.52 | 0.621 | 0.523 | 0.678
